Patent US11285127B2, “Compositions and methods for lowering triglycerides without raising LDL-C levels in a subject on concomitant statin therapy” (Amarin Pharmaceuticals Ireland Limited, priority 2013, dated 2022)

Tested on: patients with fasting triglyceride levels >200 mg/dl and <500 mg/dl despite statin therapy
Test: 12-week placebo-controlled study of >96% E-EPA: fasting triglycerides (TG), incl. TG goal
Type: in vivo, human
Settings: for Median reduction in triglycerides compared to baseline / TG Median % chg from BL / TG, Diff from pbo (Hodges-Lehmann median difference) / TG, EOT (Week 12 endpoint) median / TG Diff from pbo (median % chg, Hodges-Lehmann) / TG EOT Median / Fasting Triglycerides, Week 12 EP Median (IQR): MITT; for Median reduction in triglycerides compared to baseline / Percentage Achieving TG Goal (less than 150 mg/dL): Week 12; for Fasting Triglycerides, Percent change from Baseline, Median (IQR) / Fasting Triglycerides, Difference from placebo, Estimated median: Week 12, MITT; for Fasting Triglycerides, Difference from placebo, Estimated median: difference in percent change
Experimental: A multi-center, placebo-controlled, randomized, double-blind, 12-week study was performed to evaluate the efficacy and safety of >96% E-EPA in patients with fasting triglyceride levels >200 mg/dl and <500 mg/dl despite statin therapy (the mean of two qualifying entry values needed to be >185 mg/dl and at least one of the values needed to be >200 mg/dl). The primary objective of the study was to determine the efficacy of >96% E-EPA 2 g daily and 4 g daily, compared to placebo, in lowering fasting TG levels in patients with high risk for cardiovascular disease and with fasting TG levels 200 mg/dl and <500 mg/dl, despite treatment to LDL-C goal on statin therapy. The population for this study was men and women >18 years of age with a body mass index ≤45 kg/m^2 with fasting TG levels greater than or equal to 200 mg/dl and less than 500 mg/dl and on a stable does of statin therapy (with or without ezetimibe). The statin was atorvostatin, rosuvastatin or simvastatin. The dose of statin must have been stable for ≥4 weeks prior to the LDL-C/TG baseline qualifying measurement for randomization. The statin dose was optimized such that the patients are at their LDL-C goal at the LDL-C/TG baseline qualifying measurements. The same statin at the same dose was continued until the study ended. Approximately 702 patients were randomized at approximately 80 centers in the U.S. The study was a 18- to 20-week, Phase 3, multi-center study consisting of 2 study periods: (1) A 6- to 8-week screening period that included a diet and lifestyle stabilization, a non-statin lipid-altering treatment washout, and an LDL-C and TG qualifying period and (2) A 12-week, double-blind, randomized, placebo-controlled treatment period. After confirmation of qualifying fasting LDL-C and TG values, eligible patients entered a 12-week, randomized, double-blind treatment period. At Visit 4 (Week 0), patients were randomly assigned to 1 of the following treatment groups: • >96% E-EPA 2 g daily, • >96% E-EPA 4 g daily, or • Placebo. During the double-blind treatment period, patients were to take 2 capsules (>96% E-EPA or matching placebo) in the morning and 2 capsules in the evening for a total of 4 capsules per day. • Patients in the >96% E-EPA 2 g/day treatment group received 1>96% E-EPA 1 g capsule and 1 matching placebo capsule in the morning and in the evening. • Patients in the >96% E-EPA 4 g/day treatment group received 2>96% E-EPA 1 g capsules in the morning and evening. The primary efficacy variable for the double-blind treatment period was percent change in TG from baseline to Week 12 endpoint. The secondary efficacy variables for the double-blind treatment period included the following: • Percent changes in total cholesterol (TC), high-density lipoprotein cholesterol (HDL-C), LDL-C, calculated non-HDL-C, and very low-density lipoprotein cholesterol (VLDL-C) from baseline to Week 12 endpoint; • Percent change in very low-density lipoprotein TG from baseline to Week 12; • Percent changes in apolipoprotein A-I (Apo A-1), apolipoprotein B (Apo B), and Apo A-1/Apo B ratio from baseline to Week 12; • Percent changes in lipoprotein(a) from baseline to Week 12; • Percent changes in LDL particle number and size, measured by nuclear magnetic resonance, from baseline to Week 12; • Percent change in remnant-like particle cholesterol from baseline to Week 12; • Percent change in oxidized LDL from baseline to Week 12; • Changes in FPG and HbA1c from baseline to Week 12; • Change in insulin resistance, as assessed by the homeostasis model index insulin resistance, from baseline to Week 12; • Percent change in lipoprotein associated phospholipase A2 (Lp-PLA2) from baseline to Week 12; • Change in intracellular adhesion molecule-1 from baseline to Week 12; • Change in interleukin-2 from baseline to Week 12; • Change in plasminogen activator inhibitor-1 from baseline to Week 12. […]

[1] = AMR 101 2 g + statin, Atorva subgroup
[2] = AMR 101 2 g + statin, Rosuva subgroup
[3] = AMR 101 2 g + statin, Simva subgroup
[4] = AMR 101 2 g + statin, Statin Potency High
[5] = AMR 101 2 g + statin, Statin Potency Low
[6] = AMR 101 2 g + statin, Statin Potency Medium
[7] = AMR 101 2 g + statin, Diabetes No, Week 12 endpoint
[8] = AMR 101 2 g + statin, Diabetes Yes, Week 12 endpoint
[9] = AMR 101 2 g + statin, Non-statin Washout No, Week 12 endpoint
[10] = AMR 101 2 g + statin, Non-statin Washout Yes, Week 12 endpoint
[11] = AMR 101 2 g + statin, baseline TG tertile Highest (≥289.5 mg/dL), Week 12 endpoint
[12] = AMR 101 2 g + statin, baseline TG tertile Lowest (<230.5 mg/dL), Week 12 endpoint
[13] = AMR 101 2 g + statin, baseline TG tertile Middle (230.5 to <289.5 mg/dL), Week 12 endpoint
[14] = AMR 101 4 g + statin, Atorva subgroup
[15] = AMR 101 4 g + statin, Rosuva subgroup
[16] = AMR 101 4 g + statin, Simva subgroup
[17] = AMR 101 4 g + statin, Statin Potency High
[18] = AMR 101 4 g + statin, Statin Potency Low
[19] = AMR 101 4 g + statin, Statin Potency Medium
[20] = AMR 101 4 g + statin, Diabetes No, Week 12 endpoint
[21] = AMR 101 4 g + statin, Diabetes Yes, Week 12 endpoint
[22] = AMR 101 4 g + statin, Non-statin Washout No, Week 12 endpoint
[23] = AMR 101 4 g + statin, Non-statin Washout Yes, Week 12 endpoint
[24] = AMR 101 4 g + statin, baseline TG tertile Highest (≥289.5 mg/dL), Week 12 endpoint
[25] = AMR 101 4 g + statin, baseline TG tertile Lowest (<230.5 mg/dL), Week 12 endpoint
[26] = AMR 101 4 g + statin, baseline TG tertile Middle (230.5 to <289.5 mg/dL), Week 12 endpoint
[27] = IPE 4 g/day (n = 216), 12 weeks, patients with lipoprotein data

Structure (SMILES): CC/C=C\C/C=C\C/C=C\C/C=C\C/C=C\CCCC(=O)OCC [AMR101, ethyl eicosapentaenoate]
- Median reduction in triglycerides compared to baseline (2 g/day): 2.6%
- Percentage Achieving TG Goal (less than 150 mg/dL) (2 g/day): 3.8%
- Subjects who Achieved TG Goal (less than 150 mg/dL), number (2 g/day, Week 12, total n 234): 9
- Median reduction in triglycerides compared to baseline (4 g/day): 17.5%
- Percentage Achieving TG Goal (less than 150 mg/dL) (4 g/day): 7.1%
- Subjects who Achieved TG Goal (less than 150 mg/dL), number (4 g/day, Week 12, total n 226): 16
- TG Median % chg from BL [1]: −0.5%
- TG, Diff from pbo (Hodges-Lehmann median difference) [1]: −2.4
- TG, EOT (Week 12 endpoint) median [1]: 245.0
- TG Median % chg from BL [2]: −5.8%
- TG, Diff from pbo (Hodges-Lehmann median difference) [2]: −5.7
- TG, EOT (Week 12 endpoint) median [2]: 252.5
- TG Median % chg from BL [3]: −8.8%
- TG, Diff from pbo (Hodges-Lehmann median difference) [3]: −14.3
- TG, EOT (Week 12 endpoint) median [3]: 241.3
- TG Median % chg from BL [4]: −5.8%
- TG, Diff from pbo (Hodges-Lehmann median difference) [4]: −11.7
- TG, EOT (Week 12 endpoint) median [4]: 239.5
- TG Median % chg from BL [5]: −18.8%
- TG, Diff from pbo (Hodges-Lehmann median difference) [5]: −13.8
- TG, EOT (Week 12 endpoint) median [5]: 208.5
- TG Median % chg from BL [6]: −5.3%
- TG, Diff from pbo (Hodges-Lehmann median difference) [6]: −8.7
- TG, EOT (Week 12 endpoint) median [6]: 248.0
- TG Diff from pbo (median % chg, Hodges-Lehmann) [7]: −10.8%
- TG EOT Median [7]: 245.0 mg/dL
- TG Median % chg from BL [7]: −12.1%
- TG Diff from pbo (median % chg, Hodges-Lehmann) [8]: −9.8%
- TG EOT Median [8]: 244.0 mg/dL
- TG Median % chg from BL [8]: −1.5%
- TG Diff from pbo (median % chg, Hodges-Lehmann) [9]: −10.7%
- TG EOT Median [9]: 229.0 mg/dL
- TG Median % chg from BL [9]: −7.9%
- TG Diff from pbo (median % chg, Hodges-Lehmann) [10]: −9.5%
- TG EOT Median [10]: 249.5 mg/dL
- TG Median % chg from BL [10]: −4.2%
- TG Diff from pbo (median % chg, Hodges-Lehmann) [11]: −16.9%
- TG EOT Median [11]: 320.3 mg/dL
- TG Median % chg from BL [11]: −8.7%
- TG Diff from pbo (median % chg, Hodges-Lehmann) [12]: −4.1%
- TG EOT Median [12]: 207.8 mg/dL
- TG Median % chg from BL [12]: 0.7%
- TG Diff from pbo (median % chg, Hodges-Lehmann) [13]: −9.9%
- TG EOT Median [13]: 228.3 mg/dL
- TG Median % chg from BL [13]: −13.0%
- Fasting Triglycerides, Week 12 EP Median (IQR) (AMR101 2 g/d + statin, n 234): 244.3 (117.0)
- Fasting Triglycerides, Percent change from Baseline, Median (IQR) (AMR101 2g/d + statin): −5.6 (34.5) %
- Fasting Triglycerides, Difference from placebo, Estimated median (AMR101 2g/d + statin): −10.1
- TG Median % chg from BL [14]: −23.9%
- TG, Diff from pbo (Hodges-Lehmann median difference) [14]: −28.4
- TG, EOT (Week 12 endpoint) median [14]: 216.0
- TG Median % chg from BL [15]: −20.5%
- TG, Diff from pbo (Hodges-Lehmann median difference) [15]: −23.4
- TG, EOT (Week 12 endpoint) median [15]: 204.0
- TG Median % chg from BL [16]: −14.7%
- TG, Diff from pbo (Hodges-Lehmann median difference) [16]: −18.8
- TG, EOT (Week 12 endpoint) median [16]: 228.0
- TG Median % chg from BL [17]: −20.2%
- TG, Diff from pbo (Hodges-Lehmann median difference) [17]: −26.0
- TG, EOT (Week 12 endpoint) median [17]: 214.5
- TG Median % chg from BL [18]: 0.5%
- TG, Diff from pbo (Hodges-Lehmann median difference) [18]: −13.1
- TG, EOT (Week 12 endpoint) median [18]: 256.8
- TG Median % chg from BL [19]: −15.8%
- TG, Diff from pbo (Hodges-Lehmann median difference) [19]: −20.1
- TG, EOT (Week 12 endpoint) median [19]: 221.0
- TG Diff from pbo (median % chg, Hodges-Lehmann) [20]: −16.8%
- TG EOT Median [20]: 234.5 mg/dL
- TG Median % chg from BL [20]: −15.0%
- TG Diff from pbo (median % chg, Hodges-Lehmann) [21]: −23.2%
- TG EOT Median [21]: 216.5 mg/dL
- TG Median % chg from BL [21]: −18.7%
- TG Diff from pbo (median % chg, Hodges-Lehmann) [22]: −20.8%
- TG EOT Median [22]: 220.0 mg/dL
- TG Median % chg from BL [22]: −16.7%
- TG Diff from pbo (median % chg, Hodges-Lehmann) [23]: −22.4%
- TG EOT Median [23]: 220.8 mg/dL
- TG Median % chg from BL [23]: −17.7%
- TG Diff from pbo (median % chg, Hodges-Lehmann) [24]: −31.1%
- TG EOT Median [24]: 260.0 mg/dL
- TG Median % chg from BL [24]: −21.8%
- TG Diff from pbo (median % chg, Hodges-Lehmann) [25]: −14.4%
- TG EOT Median [25]: 183.5 mg/dL
- TG Median % chg from BL [25]: −10.9%
- TG Diff from pbo (median % chg, Hodges-Lehmann) [26]: −17.9%
- TG EOT Median [26]: 205.0 mg/dL
- TG Median % chg from BL [26]: −19.3%
- Fasting Triglycerides, Week 12 EP Median (IQR) (AMR101 4 g/d + statin, n 226): 220.8 (92.0)
- Fasting Triglycerides, Percent change from Baseline, Median (IQR) (AMR101 4g/d + statin): −17.5 (31.0) %
- Fasting Triglycerides, Difference from placebo, Estimated median (AMR101 4g/d + statin): −21.5
- TG, Change From Baseline, % (median) [27]: −17.5%
- TG, End of Treatment (median) [27]: 219.3 mg/dL
- TG, Median Change From Baseline IPE 4 g/day vs Placebo, % (IPE 4 g/day vs placebo, 12 weeks, Hodges-Lehmann median): −21.1%
